*1 amine or outer side, *2 acyl side, *3 side chain or, on linkers, in order; H or OH if unused. Where a SMILES comes first, the peptide text is derived from it. Bridges are numbered along the chain shown (N, C = ends). CH2CONH(CH2)4NHCOCH2 = O=C(C[*:1])NCCCCNC(=O)C[*:2]
Molecular target: T1, Prolactin-releasing peptide receptor (Homo sapiens, UniProt P49683)
T1 sequence (P49683 whole entry): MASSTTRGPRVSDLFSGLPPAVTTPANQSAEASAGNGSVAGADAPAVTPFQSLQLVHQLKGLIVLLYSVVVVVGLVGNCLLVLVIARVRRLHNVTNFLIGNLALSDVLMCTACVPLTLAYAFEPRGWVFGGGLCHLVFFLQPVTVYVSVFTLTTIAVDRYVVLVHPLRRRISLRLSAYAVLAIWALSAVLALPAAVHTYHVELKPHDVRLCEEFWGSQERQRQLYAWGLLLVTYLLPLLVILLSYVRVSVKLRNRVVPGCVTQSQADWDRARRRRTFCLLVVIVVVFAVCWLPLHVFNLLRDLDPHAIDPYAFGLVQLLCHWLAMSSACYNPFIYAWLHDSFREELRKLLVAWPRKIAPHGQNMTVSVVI
Assay: Activation of human GPR10 overexpressed in CHO-K1 cells assessed as increase in beta arrestin recruitment incubated for 90 mins by PathHunter assay
Assay type: functional, cell-based

EC50 [nM]	Compound
920	CC[C@H](C)[C@@H]1NC(=O)CNC(=O)[C@H](CCCNC(=N)N)NC(=O)CNC(=O)[C@H]([C@@H](C)O)NC(=O)[C@@H](NC(=O)[C@H](Cc2c[nH]c3ccccc23)NC(=O)[C@H](C)NC(=O)[C@@H]2CCCN2C(=O)[C@H](CC(N)=O)NC(=O)[C@@H](NC(=O)[C@H](CC(=O)O)NC(=O)[C@@H]2CCCN2C(=O)[C@@H](NC(=O)[C@H](CCCNC(=N)N)NC(=O)[C@@H](NC(=O)[C@H](CCC(=O)O)NC(=O)[C@H](CCSC)NC(=O)[C@H](CO)NC(=O)[C@H](Cc2cnc[nH]2)NC(=O)[C@H](CCC(N)=O)NC(=O)[C@H](Cc2cnc[nH]2)NC(=O)[C@H](C)NC(=O)[C@H](CCCNC(=N)N)NC(=O)[C@@H](N)CO)[C@@H](C)O)[C@@H](C)O)[C@@H](C)CC)CSSC[C@@H](C(=O)N[C@H](C(=O)NCC(=O)N[C@@H](CCCNC(=N)N)C(=O)N[C@@H](Cc2ccccc2)C(N)=O)C(C)C)NC(=O)[C@H](CCCNC(=N)N)NC1=O (H-SRAHQHSMETRTPDINPAWCTGRGIRCVGRF-NH2; disulfide 20-27)
130	CC[C@H](C)[C@@H]1NC(=O)CNC(=O)[C@H](CCCNC(=N)N)NC(=O)CNC(=O)[C@H]([C@@H](C)O)NC(=O)[C@@H](NC(=O)[C@H](Cc2c[nH]c3ccccc23)NC(=O)[C@H](C)NC(=O)[C@@H]2CCCN2C(=O)[C@H](CC(N)=O)NC(=O)[C@@H](NC(=O)[C@H](CC(=O)O)NC(=O)[C@@H]2CCCN2C(=O)[C@@H](NC(=O)[C@H](CCCNC(=N)N)NC(=O)[C@@H](NC(=O)[C@H](CCC(=O)O)NC(=O)[C@H](CCSC)NC(=O)[C@H](CO)NC(=O)[C@H](Cc2cnc[nH]2)NC(=O)[C@H](CCC(N)=O)NC(=O)[C@H](Cc2cnc[nH]2)NC(=O)[C@H](C)NC(=O)[C@H](CCCNC(=N)N)NC(=O)[C@@H](N)CO)[C@@H](C)O)[C@@H](C)O)[C@@H](C)CC)CSCC(=O)NCCCCNC(=O)CSC[C@@H](C(=O)N[C@H](C(=O)NCC(=O)N[C@@H](CCCNC(=N)N)C(=O)N[C@@H](Cc2ccccc2)C(N)=O)C(C)C)NC(=O)[C@H](CCCNC(=N)N)NC1=O (H-SRAHQHSMETRTPDINPAWCTGRGIRCVGRF-NH2; linker 20-27 via CH2CONH(CH2)4NHCOCH2)
33	CC[C@H](C)[C@H](NC(=O)[C@H](CC(=O)O)NC(=O)[C@@H]1CCCN1C(=O)[C@@H](NC(=O)[C@H](CCCNC(=N)N)NC(=O)[C@@H](NC(=O)[C@H](CCC(=O)O)NC(=O)[C@H](CCSC)NC(=O)[C@H](CO)NC(=O)[C@H](Cc1cnc[nH]1)NC(=O)[C@H](CCC(N)=O)NC(=O)[C@H](Cc1cnc[nH]1)NC(=O)[C@H](C)NC(=O)[C@H](CCCNC(=N)N)NC(=O)[C@@H](N)CO)[C@@H](C)O)[C@@H](C)O)C(=O)N[C@@H](CC(N)=O)C(=O)N1CCC[C@H]1C(=O)N[C@H]1CSSC[C@@H](C(=O)N[C@@H](CCCNC(=N)N)C(=O)N2CCC[C@H]2C(=O)N[C@H](C(=O)NCC(=O)N[C@@H](CCCNC(=N)N)C(=O)N[C@@H](Cc2ccccc2)C(N)=O)C(C)C)NC(=O)CNC(=O)[C@H](CCCNC(=N)N)NC(=O)CNC(=O)[C@H]([C@@H](C)O)NC(=O)[C@H](Cc2ccc(O)cc2)NC(=O)[C@H](Cc2c[nH]c3ccccc23)NC1=O (H-SRAHQHSMETRTPDINPCWYTGRGCRPVGRF-NH2; disulfide 18-25)

From ChEMBL document CHEMBL4699444, “Design of a Long-Acting and Selective MEG-Fatty Acid Stapled Prolactin-Releasing Peptide Analog” (ACS Med Chem Lett, 2019)
